From PMC6792352, “Limited Chemical Structural Diversity Found to Modulate Thyroid Hormone Receptor in the Tox21 Chemical Library” (Environmental Health Perspectives, 2019) come the findings set out here.

The series is described as follows: in vitro. Conditions: rat, gh3-tre-luc cells.

Counter-ions that a name gives are not always drawn. Bounds are passed on as bounds.

Broadly, the CC50 is the concentration giving 50% cytotoxicity. Read a low CC50 as greater toxicity to the cells. In turn, `CCC1(C)CC(=O)NC1=O` (centres unmarked) [Ethosuximide] showed a CC50 at 24 h (AC50 (uM) modified / 1000) of more than 50 µM. On the same count and under the same terms, under `C1=C\CC/C=C\CC/1` [1,5-Cyclooctadiene] stands more than 100 µM. Still for that read-out and setting: under `CSc1nnc(C(C)(C)C)c(=O)n1N` [Metribuzin] stands more than 90 µM; under `CCCCCCCCCCCCN(CCO)CCO` [Lauryldiethanolamine], 14.8 µM; under `OC(CCN1CCCCC1)(c1ccccc1)c1ccccc1` [Pridinol], 25.8 µM.

Where the note is “AC50 (uM) modified / 1000”, `COC(COC(N)=O)C1=C(N2CC2)C(=O)C(C)=C(N2CC2)C1=O` (centres unmarked) [Carboquone] registered a 50% cytotoxic concentration (CC50) at 24 h of 0.556 µM.

Turning to `O=S1(=O)CCCC1` [Sulfolane], the CC50 at 24 h (AC50 (uM) modified / 1000) is more than 90 µM. Take `CCN(C(=O)N(CC)c1ccccc1)c1ccccc1` [N,N'-Diethylcarbanilide]: under “AC50 (uM) modified / 1000”, the 50% cytotoxic concentration (CC50) at 24 h was more than 90 µM.

`O=Cc1cc(O)ccc1Br` [2-Bromo-5-hydroxy-benzaldehyde]: the half-maximal cytotoxic concentration (CC50) at 24 h (AC50 (uM) modified / 1000) was more than 90 µM. On the same count and under the same terms, to `CNCC[C@@H](Oc1ccccc1C)c1ccccc1` [Atomoxetine hydrochloride] belongs 44.9 µM. The same measure, in the same setting: to `O=C(O)c1ccc(C(=O)O)c(C(=O)O)c1` [1,2,4-Benzenetricarboxylic acid] belongs more than 90 µM. Same read-out and setting: to `COC(OC)(C(=O)c1ccccc1)c1ccccc1` [2,2-Dimethoxy-1,2-diphenylethanone] belongs more than 90 µM; to `Cc1c(N)cccc1[N+](=O)[O-]` [2-Methyl-3-nitroaniline], more than 90 µM.

As to `O=S(O)CO` [Hydroxymethanesulfinic acid monosodium salt dihydrate], the CC50 at 24 h (AC50 (uM) modified / 1000) is more than 50 µM. The same measure, in the same setting: to `Nc1cc(-c2ccncc2)c[nH]c1=O` [Amrinone] belongs more than 90 µM; to `Cc1nc2ccccc2n1Cc1ccc(Cl)cc1` [Chlormidazole], more than 50 µM; to `CO[C@@H]1COCC[C@@H]1N[C@@H]1CC[C@@](C(=O)N2CCc3ncc(C(F)(F)F)cc3C2)(C(C)C)C1` [MK-812], more than 90 µM. The same measure, in the same setting: under `Cc1cccc(C)c1NC(=O)CN1CCCCCC1` [Pincainide] stands more than 50 µM; under `O=C(c1ccc(F)cc1)C1CCN(CCn2c(=O)[nH]c3ccccc3c2=O)CC1` [Ketanserin], more than 50 µM. Still for that read-out and setting: to `COc1ccc(C(=O)N2CCCC2=O)cc1` [Aniracetam] belongs more than 50 µM; to `C=C/C(C)=C/C/C=C(\C)CCC=C(C)C` [alpha-Farnesene], more than 90 µM; to `CC1CNc2c(cccc2S(=O)(=O)N[C@@H](CCCNC(=N)N)C(=O)N2CC[C@@H](C)C[C@@H]2C(=O)O)C1` (some centres unmarked) [Argatroban], more than 50 µM.

On to `CC1(C)C2C(=O)CCC(C)(C)[C@]23CC[C@H]1C3` (some centres unmarked) [Isolongifolanone], for which the CC50 at 24 h (AC50 (uM) modified / 1000) was more than 90 µM.

`CCOC(=O)C(=O)OCC` [Diethyl oxalate]: the half-maximal cytotoxic concentration (CC50) at 24 h (AC50 (uM) modified / 1000) is more than 90 µM. Consider `C=CCc1ccc(OC)cc1` [Estragole], for which the cytotoxic concentration (CC50) at 24 h (AC50 (uM) modified / 1000) was more than 90 µM.

Under “AC50 (uM) modified / 1000, Tox21_110001=Tox21_112877, viability, 1 nM T3 present, 24 h”, `CC(C)=CCN1CC[C@@]2(C)c3cc(O)ccc3C[C@@H]1[C@@H]2C` [(-)-Pentazocine succinate] registered a CC50 at 24 h of 34.4 µM. For `O=C1c2ccccc2-c2ccccc21` [9-Fluorenone], the 50% cytotoxic concentration (CC50) at 24 h (AC50 (uM) modified / 1000) is more than 90 µM. The same measure, in the same setting: to `Brc1cc(-c2ccc(Br)c(Br)c2Br)cc(Br)c1Br` [Polybrominated biphenyls (PBB)] belongs more than 50 µM. In the case of `CNC(C)CC1CCCCC1` (racemic) [(+/-) Propylhexedrine], the CC50 at 24 h (AC50 (uM) modified / 1000, Tox21_110001=Tox21_113077, viability, 1 nM T3 present, 24 h) is more than 50 µM. For the setting “AC50 (uM) modified / 1000”, `CCCCCCCC=O` [Octanal] displayed a CC50 at 24 h of more than 90 µM. `ClCBr` [Bromochloromethane] gave a CC50 at 24 h (AC50 (uM) modified / 1000, Tox21_110001=Tox21_200790, viability, 1 nM T3 present, 24 h) of more than 100 µM.

`CCCCCCCCN` [1-Octanamine] registered a 50% cytotoxic concentration (CC50) at 24 h (AC50 (uM) modified / 1000) of more than 90 µM. On the same count and under the same terms, to `Clc1cc(Cl)c2c(c1)N=C1CCCCCN1C2` [1,3-dichloro-6,7,8,9,10,12-hexahydroazepino[2,1-b]quinazoline hydrochloride (1:1)] belongs more than 50 µM. Same read-out and setting: under `C[N+](C)(C)CC(O)CCl` (centres unmarked) [Dextrosil] stands more than 90 µM.

For `O=C(O)Cc1c(Cl)ccc(Cl)c1Cl` [Chlorfenac], under “AC50 (uM) modified / 1000”, the CC50 at 24 h was more than 90 µM.

As for `CNC(=N)NCCC[C@H](N)C(=O)O` [Tilarginine acetate], the CC50 at 24 h (AC50 (uM) modified / 1000) is more than 50 µM. Same read-out and setting: to `CCOC(=O)/C=C/C(=O)OCC` [Diethyl (2E)-but-2-enedioate] belongs more than 90 µM; to `Cc1cc(=O)n(-c2ccccc2)n1C` [Phenazone], more than 50 µM; to `O=[N+]([O-])c1cc(I)c(O)c(I)c1` [2,6-Diiodo-4-nitrophenol], 24.5 µM. The same measure, in the same setting: to `c1ccc2c(c1)CCCC2C1=NCCN1` (centres unmarked) [Tetrahydrozoline hydrochloride] belongs more than 50 µM; to `Cn1c(=O)cc(Oc2ccc(F)cc2F)c2cnc(NCC(C)(C)O)nc21` [PharmaGSID_48507], more than 90 µM. Still for that read-out and setting: to `CC(C)(CO)[C@@H](O)C(=O)NCCCC(=O)O` [Calcium hopantenate] belongs more than 50 µM; to `CCCNC(=O)NS(=O)(=O)c1ccc(Cl)cc1` [Chlorpropamide], more than 90 µM. Take `CCCCCc1cc(O)c2c(c1)OC(C)(C)c1ccc(C)cc1-2` [Cannabinol]: for the setting “AC50 (uM) modified / 1000, Tox21_110001=Tox21_113486, viability, 1 nM T3 present, 24 h”, the CC50 at 24 h was 13.4 µM. Regarding `O=[N+]([O-])c1ccccc1CCl` [2-Nitrobenzyl chloride], the CC50 at 24 h (AC50 (uM) modified / 1000, Tox21_110001=Tox21_200821, viability, 1 nM T3 present, 24 h) was more than 90 µM. As for `O[C@@H](CNC[C@H](O)[C@H]1CCc2cc(F)ccc2O1)[C@@H]1CCc2cc(F)ccc2O1` (racemic) [rac Nebivolol hydrochloride], half-maximal cytotoxicity (AC50 (uM) modified / 1000) (CC50 at 24 h) was put at 7.99 µM. On the same count and under the same terms, under `CC1CCCNC1` (centres unmarked) [3-Methylpiperidine] stands more than 90 µM; under `O=C(O)[C@@H]1C[C@H](CP(=O)(O)O)CCN1` (racemic) [Selfotel], more than 50 µM; under `C=CC(=O)OC` [Methyl acrylate], more than 90 µM. The same measure, in the same setting: to `CC(=O)O[C@H]1C[C@@]2(C)[C@@H](C[C@@H](O)[C@H]3[C@@]4(C)CC[C@@H](O)[C@@H](C)[C@@H]4CC[C@@]32C)/C1=C(\CCC=C(C)C)C(=O)O` [Fusidate sodium] belongs more than 50 µM; to `Nc1ccc(F)cc1F` [2,4-Difluoroaniline], more than 90 µM. The same measure, in the same setting: under `O=C1O[C@H](CO)[C@@H](O)[C@H](O)[C@H]1O` [Gluconolactone] stands more than 90 µM. Consider `Cc1ccc(N/N=c2\c(=O)cc/c(=N/Nc3ccc(S(=O)(=O)O)cc3)c2=O)c(C)c1` [C.I. Acid Orange 24, monosodium salt], for which the midpoint of cytotoxicity (AC50 (uM) modified / 1000), the CC50 at 24 h, lay at 59.4 µM.

In the case of `C[C@]12Cc3nonc3C[C@@H]1CC[C@@H]1[C@@H]2CC[C@@]2(C)[C@H]1CC[C@]2(C)O` [Furazabol], the CC50 at 24 h (AC50 (uM) modified / 1000, Tox21_110001=Tox21_112772, viability, 1 nM T3 present, 24 h) is 25.2 µM. That is a double-digit micromolar value.

For the compound `CC(C)(C)C(=O)CC(=O)C(C)(C)C` [Dipivaloylmethane], where the note is “AC50 (uM) modified / 1000”, the half-maximal cytotoxic concentration (CC50) at 24 h was more than 100 µM.

Compound `COc1cc(C(=S)N2CCOCC2)cc(OC)c1OC` [Tritiozine] returned a CC50 at 24 h (AC50 (uM) modified / 1000) of more than 50 µM. Same read-out and setting: to `CCCCCCCCCCCCCCBr` [1-Bromotetradecane] belongs more than 100 µM; to `CCOC(=O)c1ncn2c1CN(C)C(=O)c1cc(F)ccc1-2` [Flumazenil], more than 50 µM. The compound `Nc1ccc(-c2ccc(N)c(Cl)c2)cc1Cl` [3,3'-Dichlorobenzidine] registered a 50% cytotoxic concentration (CC50) at 24 h (AC50 (uM) modified / 1000, Tox21_110001=Tox21_202224, viability, 1 nM T3 present, 24 h) of 26.1 µM. As for `Cl[C@@H]1OCCO[C@H]1Cl` [2,3-Dichloro-p-dioxane], the CC50 at 24 h (AC50 (uM) modified / 1000) is more than 90 µM.

Compound `CC(C)(C)NCC(O)c1ccc(O)c(CO)n1` (centres unmarked) [Pirbuterol hydrochloride] came in with a CC50 at 24 h (AC50 (uM) modified / 1000) of more than 50 µM. On to `CN1CCN(c2cc3c(nn2)Oc2ccccc2N3C)CC1` [Pipofezine], for which the CC50 at 24 h (AC50 (uM) modified / 1000) is more than 50 µM. Still for that read-out and setting: under `O=C(Cn1ccnc1[N+](=O)[O-])NCCO` [Etandazole] stands more than 50 µM. On the same count and under the same terms, to `O=S(=O)(O)CO` [Sodium hydroxymethanesulfonate] belongs more than 90 µM. Same read-out and setting: under `COc1cc(C(C)=O)ccc1OCCCN1CCC(c2noc3cc(F)ccc23)CC1` [Iloperidone] stands 15.2 µM; under `CCN(CC)c1ccc(C(=C2C=CC(=[N+](CC)CC)C=C2)c2ccc(S(=O)(=O)O)cc2S(=O)(=O)[O-])cc1` [Sulfan blue], more than 90 µM; under `OC[C@H]1O[C@@H](n2cnc3c(S)ncnc32)[C@H](O)[C@@H]1O` [Thioinosine], more than 50 µM. As for `CC(=O)OC/C=C/c1ccccc1` [3-Phenylprop-2-en-1-yl acetate], the CC50 at 24 h (AC50 (uM) modified / 1000) is more than 90 µM. The same measure, in the same setting: under `CC(=O)[C@@]1(O)CC[C@H]2[C@@H]3C=C(Cl)C4=CC(=O)[C@@H]5C[C@@H]5[C@]4(C)[C@H]3CC[C@@]21C` [Cyproterone] stands more than 50 µM. Still for that read-out and setting: to `CCCCCCCCCCCCCCCCCCOS(=O)(=O)O` [Octadecyl sulfate sodium salt] belongs 53.1 µM.

On to `CC1=CCC2C(C1)C2(C)C` (centres unmarked) [3-Carene], for which the half-maximal cytotoxic concentration (CC50) at 24 h (AC50 (uM) modified / 1000) was more than 90 µM.

For the setting “AC50 (uM) modified / 1000”, `CC[N+]1(CC)CCC(=C(c2ccccc2)c2ccccc2)C1C` (centres unmarked) [Prifinium bromide] displayed a half-maximal cytotoxic concentration (CC50) at 24 h of more than 50 µM.

`COc1c(Br)cc(Br)c(C)c1Br` [1,3,5-Tribromo-2-methoxy-4-methylbenzene] came in with a CC50 at 24 h (AC50 (uM) modified / 1000) of more than 90 µM.

As to `ON=CC=NO` [Glyoxime], under “AC50 (uM) modified / 1000”, the CC50 at 24 h was more than 90 µM. In the case of `FC(F)(F)c1ccc(Cl)cc1Cl` [2,4-Dichlorobenzotrifluoride], the 50% cytotoxic concentration (CC50) at 24 h (AC50 (uM) modified / 1000) was more than 90 µM. `N#CCCl` [Chloroacetonitrile] displayed a half-maximal cytotoxic concentration (CC50) at 24 h (AC50 (uM) modified / 1000) of more than 100 µM. The same measure, in the same setting: to `O=C(O)c1cc(Cl)cc(Cl)c1` [3,5-Dichlorobenzoic acid] belongs more than 90 µM.
